Test results reported in patent US8895744B2, “Alfa-carboline inhibitors of NPM-ALK, RET, and Bcr-Abl” (Universita' Degli Studi di Milano-Bicocca, priority 2008, dated 2014).
Where two headings read alike, the source gives them in different places.

Key:
Recombinant ALK kinase = biological target: T1, Recombinant ALK kinase (Homo sapiens, UniProt Q9UM73); assay: ALK kinase inhibitory activity, ELISA-based in vitro kinase assay; assay type: biochemical
T1 construct: made in house; host or cells: Sf9 insect cells (baculovirus)
How it was run: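 Sf9-expressed, purified recombinant ALK phosphorylated a plate-coated peptide substrate with 0.3 mM ATP, Mn2+/Mg2+, pH 7.5, 15 min at 30° C, after 10 min inhibitor preincubation. Phosphotyrosine was detected by anti-pTyr ELISA (TMB, A450); IC50 in μM is the concentration giving 50% inhibition relative to control.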

Recombinant Ret protein = biological target: T2, Recombinant Ret protein (Homo sapiens, UniProt P07949); assay: RET kinase inhibitory activity, ELISA-based in vitro kinase assay; assay type: biochemical; conditions: purified Ret, 0.3 mM ATP
T2 construct: made in house; host or cells: Sf9 cells (baculovirus)
Description: Recombinant ALK kinase was expressed in Sf9 insect cells using the pBlueBacHis2C baculovirus vector system and purified using an anion exchange Fast Flow Q-sepharose column (Amersham-Pharmacia Biotech) followed by HiTrap™-nickel affinity column (Amersham-Pharmacia Biotech). Purified ALK protein was used to screen inhibitors in the ELISA-based kinase assay. A Nunc Immuno 96 well plate was incubated overnight at 37° C. with coating solution (125 μL/well) containing ALK peptide substrate ([…]) (SEQ ID NO: 1) at various concentrations in PBS. Wells were then washed with 200 μL of wash buffer (PBS-Tween 0.05%) and left to dry for at least 2 h at 37° C. The kinase reaction was performed in the presence of 50 mM Tris pH 7.5, 5 mM MnCl2, 5 mM MgCl2, 0.3 mM ATP and purified rALK in a total volume of 100 μL/well at 30° C. for 15 min. For inhibitor testing the reaction mix was preincubated with the inhibitor or solvent control for 10 min at room temperature before transferring to the ELISA plate. After the reaction wells were washed 5 times with 200 μL of wash buffer. Phosphorylated peptide was detected using 100 μL/well of a mouse monoclonal anti-phosphotyrosine antibody (clone 4G10 Upstate Biotech Ltd) diluted 1:2000 in PBS+4% BSA. After 30 min incubation at room temperature the antibody was removed and wells were washed as described above. 100 μL of a secondary antibody (anti-mouse IgG, Horseradish Peroxidase linked whole antibody, Amersham Pharmacia Biotech) diluted 1:1000 in PBS+4% BSA was added to each well and the plate was incubated again for 30 min at room temperature before washing as above. The plate was developed using 100 μL/well TMB Substrate Solution (Endogen) and the reaction was stopped by adding an equiv.ual volume of H2SO4 0.36 M. Finally, the absorbance was read at 450 nm using an Ultrospec® 300 spectrophotometer (Amersham-Pharmacia Biotech). The concentration of the test solution showing 50% inhibition as compared with the control was expressed as IC50 (μM).
38. RET Kinase Inhibitory Activity
Method: ELISA-Based In Vitro Kinase Assay
Recombinant Ret protein was expressed in Sf9 cells using the pBlueBacHis2C baculovirus expression vector. Ret was purified using an anion exchange Fast Flow Q-sepharose column (Amersham-Pharmacia Biotech) followed by HiTrap™-nickel affinity column (Amersham-Pharmacia Biotech). Purified Ret was used in the ELISA-based kinase assay to screen inhibitors as described above. The kinase reaction was performed in the presence of 50 mM Tris pH 7.5, 1 mM MnCl2, 5 mM MgCl2, 0.3 mM ATP, peptide substrate ([…]) (SEQ ID NO: 1) and purified Ret. The concentration of the test solution showing 50% inhibition as compared with the control was expressed as IC50 (μM).

[1] = system: parent untransformed BaF3 cells; assay: Tritiated thymidine uptake cell proliferation assay, parental BaF3 (control); assay type: cell-based; conditions: Mus musculus, 3[H]-thymidine uptake, 72 h, medium with IL-3, read-out: BaF parental IC50
How it was run: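 Control lines were parental BaF3 in IL-3-supplemented medium and ALK-, Abl- or RET-negative U937, seeded at 10 000 cells/well with serial inhibitor dilutions for 72 h at 37 °C. ³H-thymidine (1 μCi/well) was added for the final 16 h; IC50 (μM) is the concentration halving uptake versus DMSO.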

[2] = biological target: T3, Recombinant Abl T315I protein (Homo sapiens, UniProt P00519, T315I); assay: Abl T315I mutant kinase inhibitory activity, ELISA-based in vitro kinase assay; assay type: biochemical; conditions: purified Abl T315I, 0.3 mM ATP
T3 construct: made in house; host or cells: Sf9 cells (baculovirus)
How it was run: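 His-tagged human Abl T315I from Sf9 cells, preincubated 10 min at room temperature with inhibitor, then reacted on peptide-coated plates with 0.3 mM ATP, 1 mM MnCl2, 5 mM MgCl2 in 50 mM Tris pH 7.5. Phosphotyrosine detected by anti-pTyr/HRP ELISA at 450 nm; IC50 as 50% inhibition vs control.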

[3] = system: NPM/ALK positive SUDHL-1 cells; assay: Tritiated thymidine uptake cell proliferation assay, SUDHL-1; assay type: cell-based; conditions: 3[H]-thymidine uptake, 72 h
Description: Inhibition of the proliferation of NPM/ALK positive cells
(§1) Method: Tritiated Thymidine Uptake Cell Proliferation Assay
(§2) The following procedure was used with parent untransformed BaF3 cells, BaF3 cells transformed with the oncogenic fusion protein NPM/ALK, NPM/ALK positive SUDHL-1 cells, ALK-negative U937 cells, NPM/ALK positive KARPAS-299 cells. The parent untransformed BaF3 cells and Alk-negative U937 cells are used as controls. Cells were seeded in U-bottomed 96-well plates at 10 000 cells/well in a volume of 100 μL in supplemented medium. In the case of the parent untransformed BaF3 cells, the medium was supplemented with IL-3. Serial dilutions of inhibitors were added to the appropriate wells and volumes adjusted to 200 μL. Controls were treated with the equivalent volume of vehicle, DMSO, alone. Plates were incubated at 37° C. for 72 h. ^3[H]-thymidine (1 μCi/well) was added for the last 16 h of incubation. Cells were harvested on to paper filters and ^3[H]-thymidine incorporation was measured using a β scintillation counter (1430 MicroBeta, Wallac, Turku, Finland). The 50% inhibitory concentration (IC50) was defined as the concentration of inhibitor, expressed in micromolar, that gave a 50% decrease in ^3[H]-thymidine uptake compared with controls.

[4] = biological target: T4, BaF3 cells transformed with the oncogenic fusion protein NPM/ALK (Homo sapiens, UniProt Q9UM73); assay: Tritiated thymidine uptake cell proliferation assay, BaF3 NPM/ALK; assay type: cell-based; conditions: 3[H]-thymidine uptake, 72 h; read-out: BaF NPM/ALK IC50
T4 construct: fused on or other part: P06748 (Nucleophosmin)
How it was run: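 Cells were seeded at 10 000/well with serial inhibitor dilutions or DMSO vehicle and incubated 72 h at 37 °C, with ^3[H]-thymidine (1 μCi/well) added for the final 16 h. Incorporation was read by β scintillation counting. IC50 (μM) is the concentration giving a 50% decrease in uptake versus controls.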

ALK-negative U937 cells = assay: Tritiated thymidine uptake cell proliferation assay, U937 (control); assay type: cell-based; conditions: Homo sapiens, U-937; 3[H]-thymidine uptake, 72 h
Description: as §1
as §2, with “with controls. […]” for “with controls.”
as §2, with “RET-PTC2, or RET-negative 11937” for “NPM/ALK, NPM/ALK positive SUDHL-1 cells, ALK-negative U937 cells, NPM/ALK positive KARPAS-299”, “RET-negative” for “Alk-negative”

[5] = purified rALK, 0.3 mM ATP, read-out: ALK IC50

T4 sequence (Q9UM73 whole entry, change not shown, the tested form may be a part): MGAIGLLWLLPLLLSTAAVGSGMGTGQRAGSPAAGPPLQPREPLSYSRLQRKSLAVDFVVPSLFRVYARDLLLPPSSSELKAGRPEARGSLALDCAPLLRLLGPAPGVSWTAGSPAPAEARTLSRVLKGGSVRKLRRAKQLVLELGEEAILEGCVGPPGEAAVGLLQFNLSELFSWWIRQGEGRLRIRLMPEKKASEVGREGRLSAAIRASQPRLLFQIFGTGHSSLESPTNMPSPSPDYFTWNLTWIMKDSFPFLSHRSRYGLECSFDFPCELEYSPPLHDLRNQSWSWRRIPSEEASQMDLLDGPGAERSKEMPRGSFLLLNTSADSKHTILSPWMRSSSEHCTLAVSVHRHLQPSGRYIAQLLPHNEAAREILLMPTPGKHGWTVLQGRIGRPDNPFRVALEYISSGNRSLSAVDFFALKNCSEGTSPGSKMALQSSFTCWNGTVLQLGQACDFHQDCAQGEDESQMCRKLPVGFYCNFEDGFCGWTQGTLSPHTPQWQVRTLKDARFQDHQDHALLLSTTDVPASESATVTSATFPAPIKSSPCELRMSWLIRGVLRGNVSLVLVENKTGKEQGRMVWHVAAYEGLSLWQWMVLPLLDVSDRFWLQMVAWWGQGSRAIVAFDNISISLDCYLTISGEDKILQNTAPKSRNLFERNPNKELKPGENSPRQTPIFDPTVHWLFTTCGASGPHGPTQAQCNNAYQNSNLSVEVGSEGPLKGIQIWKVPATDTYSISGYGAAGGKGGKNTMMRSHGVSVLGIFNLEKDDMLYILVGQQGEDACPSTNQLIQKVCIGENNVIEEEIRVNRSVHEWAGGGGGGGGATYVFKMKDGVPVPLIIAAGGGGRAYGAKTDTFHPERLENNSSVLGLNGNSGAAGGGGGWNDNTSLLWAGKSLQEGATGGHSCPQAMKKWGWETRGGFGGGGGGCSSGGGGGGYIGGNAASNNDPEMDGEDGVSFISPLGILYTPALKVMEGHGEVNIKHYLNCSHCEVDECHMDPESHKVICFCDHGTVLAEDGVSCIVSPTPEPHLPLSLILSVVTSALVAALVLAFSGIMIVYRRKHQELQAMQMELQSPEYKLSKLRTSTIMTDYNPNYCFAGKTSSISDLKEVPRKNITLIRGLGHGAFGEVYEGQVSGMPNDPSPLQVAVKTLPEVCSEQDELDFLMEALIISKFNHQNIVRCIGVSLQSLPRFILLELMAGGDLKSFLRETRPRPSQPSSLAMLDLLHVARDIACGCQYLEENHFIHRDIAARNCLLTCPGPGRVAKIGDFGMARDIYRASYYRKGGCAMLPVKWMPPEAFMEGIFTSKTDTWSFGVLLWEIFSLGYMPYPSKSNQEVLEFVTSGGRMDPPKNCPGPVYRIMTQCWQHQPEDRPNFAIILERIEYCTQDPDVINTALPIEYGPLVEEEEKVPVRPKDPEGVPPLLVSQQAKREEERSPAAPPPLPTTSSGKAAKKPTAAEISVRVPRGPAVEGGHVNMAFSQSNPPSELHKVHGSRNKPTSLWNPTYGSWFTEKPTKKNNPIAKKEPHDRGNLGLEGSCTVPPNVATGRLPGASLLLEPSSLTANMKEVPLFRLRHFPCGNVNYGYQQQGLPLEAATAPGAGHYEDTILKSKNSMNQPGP
T2 sequence (P07949 29-1114): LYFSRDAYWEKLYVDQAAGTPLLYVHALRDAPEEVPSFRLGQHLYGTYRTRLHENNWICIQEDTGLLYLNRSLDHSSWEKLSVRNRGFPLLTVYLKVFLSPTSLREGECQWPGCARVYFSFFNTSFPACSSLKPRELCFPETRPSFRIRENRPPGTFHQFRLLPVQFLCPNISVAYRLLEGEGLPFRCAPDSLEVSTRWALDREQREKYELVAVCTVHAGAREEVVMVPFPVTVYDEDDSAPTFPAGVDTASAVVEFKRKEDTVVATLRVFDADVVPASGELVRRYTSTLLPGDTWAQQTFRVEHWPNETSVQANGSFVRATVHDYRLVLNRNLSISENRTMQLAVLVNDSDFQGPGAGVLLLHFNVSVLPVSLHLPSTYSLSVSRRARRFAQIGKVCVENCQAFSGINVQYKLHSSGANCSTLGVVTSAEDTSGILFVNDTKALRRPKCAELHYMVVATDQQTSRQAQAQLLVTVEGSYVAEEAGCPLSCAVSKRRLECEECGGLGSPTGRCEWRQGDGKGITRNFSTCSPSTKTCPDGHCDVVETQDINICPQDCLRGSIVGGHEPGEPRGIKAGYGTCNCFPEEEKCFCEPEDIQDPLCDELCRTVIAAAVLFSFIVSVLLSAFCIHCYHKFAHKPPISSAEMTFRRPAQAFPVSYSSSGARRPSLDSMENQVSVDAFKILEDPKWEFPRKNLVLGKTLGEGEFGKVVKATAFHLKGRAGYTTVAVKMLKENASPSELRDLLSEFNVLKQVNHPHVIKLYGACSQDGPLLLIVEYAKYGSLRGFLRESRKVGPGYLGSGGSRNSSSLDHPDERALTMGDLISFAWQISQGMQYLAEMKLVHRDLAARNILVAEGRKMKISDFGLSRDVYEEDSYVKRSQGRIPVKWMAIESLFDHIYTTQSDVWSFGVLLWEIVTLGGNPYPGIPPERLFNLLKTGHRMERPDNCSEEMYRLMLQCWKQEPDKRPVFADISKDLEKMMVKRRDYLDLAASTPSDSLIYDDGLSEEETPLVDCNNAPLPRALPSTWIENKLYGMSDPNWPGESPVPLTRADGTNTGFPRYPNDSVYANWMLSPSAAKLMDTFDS
T1 sequence (Q9UM73 19-1620): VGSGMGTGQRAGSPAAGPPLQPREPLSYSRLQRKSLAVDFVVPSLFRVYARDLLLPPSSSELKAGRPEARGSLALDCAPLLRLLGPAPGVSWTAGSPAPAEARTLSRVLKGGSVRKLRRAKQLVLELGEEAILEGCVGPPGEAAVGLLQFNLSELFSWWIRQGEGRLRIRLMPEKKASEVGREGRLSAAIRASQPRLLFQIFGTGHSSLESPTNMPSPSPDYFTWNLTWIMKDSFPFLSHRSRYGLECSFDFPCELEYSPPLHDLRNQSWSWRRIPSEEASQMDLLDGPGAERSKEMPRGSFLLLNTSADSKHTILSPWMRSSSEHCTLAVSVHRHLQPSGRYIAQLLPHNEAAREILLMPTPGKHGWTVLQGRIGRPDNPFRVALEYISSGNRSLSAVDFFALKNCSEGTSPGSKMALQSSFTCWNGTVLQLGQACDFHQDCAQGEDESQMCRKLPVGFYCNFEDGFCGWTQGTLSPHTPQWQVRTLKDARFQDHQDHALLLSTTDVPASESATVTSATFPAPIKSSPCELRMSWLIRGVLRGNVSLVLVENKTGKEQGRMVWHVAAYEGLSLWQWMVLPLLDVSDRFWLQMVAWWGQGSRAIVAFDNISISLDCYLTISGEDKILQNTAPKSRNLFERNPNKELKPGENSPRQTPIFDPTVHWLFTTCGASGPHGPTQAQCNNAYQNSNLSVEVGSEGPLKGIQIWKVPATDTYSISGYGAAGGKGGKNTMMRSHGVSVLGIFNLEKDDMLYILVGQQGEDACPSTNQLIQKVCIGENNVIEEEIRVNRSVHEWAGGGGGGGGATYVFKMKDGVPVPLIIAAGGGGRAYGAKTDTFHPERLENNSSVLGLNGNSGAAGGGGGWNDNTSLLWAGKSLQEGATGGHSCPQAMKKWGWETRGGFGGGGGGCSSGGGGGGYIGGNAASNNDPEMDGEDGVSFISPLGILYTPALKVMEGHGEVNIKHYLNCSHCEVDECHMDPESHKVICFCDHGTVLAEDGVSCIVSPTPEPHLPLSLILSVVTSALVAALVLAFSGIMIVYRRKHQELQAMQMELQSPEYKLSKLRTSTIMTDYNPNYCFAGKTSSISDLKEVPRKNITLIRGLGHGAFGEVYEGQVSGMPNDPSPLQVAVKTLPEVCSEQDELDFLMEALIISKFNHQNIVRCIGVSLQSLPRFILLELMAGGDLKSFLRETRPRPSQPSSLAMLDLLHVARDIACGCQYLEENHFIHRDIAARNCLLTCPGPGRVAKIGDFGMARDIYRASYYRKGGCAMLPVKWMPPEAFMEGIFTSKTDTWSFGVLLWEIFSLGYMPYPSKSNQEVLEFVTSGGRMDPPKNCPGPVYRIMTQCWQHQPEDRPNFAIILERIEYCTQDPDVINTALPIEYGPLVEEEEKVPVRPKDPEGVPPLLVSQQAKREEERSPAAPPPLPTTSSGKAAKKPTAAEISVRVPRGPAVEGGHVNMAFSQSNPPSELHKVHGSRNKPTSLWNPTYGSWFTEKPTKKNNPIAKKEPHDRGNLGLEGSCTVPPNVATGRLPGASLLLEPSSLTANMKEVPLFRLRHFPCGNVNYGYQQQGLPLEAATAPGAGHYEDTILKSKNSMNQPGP

Row | IC50 (Recombinant ALK kinase; [5]) | IC50 (Recombinant Ret protein) | IC50 [2] | IC50 [3] | GI50 [4] | melting point | IC50 (ALK-negative U937 cells) | IC50 (Recombinant ALK kinase; repeated determinations, 1st, read-out: ALK IC50, 1st determination) | IC50 (Recombinant ALK kinase; repeated determinations, 2nd or 'then', read-out: ALK IC50, 2nd / subsequent determination) | ALK IC50, 3rd determination (Recombinant ALK kinase; repeated determinations, 3rd) | Compound | IC50 [1]
1 | 20 ± 0.6 µM | 27 µM | > 100 µM | > 25 µM | 8 µM | – | – | – | – | – | O=C(CSc1ccccc1)c1ccc2[nH]c3ncc(Cl)cc3c2c1 [R275, 1-(3-Chloro-9H-pyrido[2,3-b]indol-6-yl)-2-phenylsulfanylethanone] | 2 µM
2 | 1.2 ± 0.2 µM | 1 µM | 23 µM | – | > 50 µM | > 220 °C | – | – | – | – | COc1ccc(-c2cnc3[nH]c4ccccc4c3c2)cc1 [R278, 3-(4-methoxyphenyl)-9H-pyrido[2,3-b]indole] | > 50 µM
3 | 0.5 ± 0.3 µM | 1.1 µM | 1.8 µM | > 100 µM | > 100 µM | – | – | – | – | – | C(=C\c1cnc2[nH]c3ccccc3c2c1)/c1ccccc1 [R281, 3-(2′-phenylethenyl)-9H-pyrido[2,3-b]indole] | > 100 µM
4 | 2.1 ± 0.5 µM | 4.1 µM | > 100 µM | 59 µM | > 100 µM | – | – | – | – | – | COc1ccc(-c2ccc3c(n2)[nH]c2ccccc23)cc1 [R299, 2-(4-methoxyphenyl)-9H-pyrido[2,3-b]indole] | > 100 µM
5 | 23 ± 12 µM | – | – | > 100 µM | 0.21 ± 0.01 µM | – | 13 µM | – | – | – | O=[N+]([O-])c1ccccc1Nc1ccnc2[nH]c3ccccc3c12 [R323, N-(2-nitrophenyl)-9H-pyrido[2,3-b]indol-4-amine] | > 100 µM
6 | 13 ± 2 µM | – | – | 3.6 µM | 3 ± 0.8 µM | – | 1.9 µM | – | – | – | O=[N+]([O-])c1ccccc1Nc1ccc2c(n1)[nH]c1ccc(/C=C/c3ccccc3)cc12 [R332, N-(2-nitrophenyl)-6-(2′-phenylethenyl)-9H-pyrido[2,3-b]indol-2-amine] | 20 ± 1 µM
7 | 31 ± 9 µM | – | – | 2.4 µM | 2.5 µM | – | 1.1 µM | – | – | – | CCN(CC)CCCOc1ccc(-c2ccc3[nH]c4ncc(Cl)cc4c3c2)cc1 [R337, 3-(4-(3-chloro-9H-pyrido[2,3-b]indol-6-yl)phenoxy)-N,N-diethylpropan-1-amine] | 2.6 µM
8 | – | – | – | 0.4 µM | 0.5 µM | – | 0.4 µM | – | – | – | CCN(CC)CCCOc1ccc(-c2ccc3[nH]c4ncc(/C=C/c5ccccc5)cc4c3c2)cc1 [R338, N,N-diethyl-3-(4-(3-(2′-phenylethenyl)-9H-pyrido[2,3-b]indol-6-yl)phenoxy)propan-1-amine] | 0.4 µM
9 | 7 ± 1.5 µM | – | – | 0.7 µM | 1.2 µM | – | 0.5 µM | – | – | – | CCN(CC)CCCOc1ccc(-c2ccc3[nH]c4ncc(C=Cc5ccccc5)cc4c3c2)cc1 [R340] | 1 µM
10 | 11 ± 0.1 µM | – | – | 48 µM | 74 µM | – | 17 µM | – | – | – | CCCC#Cc1ccc2c(n1)[nH]c1ccccc12 [R341, 2-(pent-1-ynyl)-9H-pyrido[2,3-b]indole] | 70 µM
11 | – | – | – | 21 µM | > 180 µM | – | 33 µM | – | – | – | C(#Cc1ccc2c(n1)[nH]c1ccccc12)c1ccccc1 [R342, 2-(phenylethynyl)-9H-pyrido[2,3-b]indole] | > 100 µM
12 | 7.8 ± 0.9 µM | – | – | 2.6 µM | 2.5 µM | – | 4.6 µM | – | – | – | CN1CCN(CCOc2ccc(-c3ccc4[nH]c5ncc(Cl)cc5c4c3)cc2)CC1 [R347, 3-chloro-6-(4-(2-(4-methylpiperazin-1-yl)ethoxy)phenyl)-9H-pyrido[2,3-b]indole] | 2.4 µM
13 | – | – | – | > 100 µM | > 100 µM | – | > 100 µM | 5.1 µM | 35 µM | inactive | COc1ccc(/C=C/c2ccc3[nH]c4ncc(Cl)cc4c3c2)cc1 [R350, (E)-3-chloro-6-(2′-(4-methoxyphenyl)ethenyl)-9H-pyrido[2,3-b]indole] | > 100 µM
